The record followed here is patent US10766917B2, “Nucleotides for the treatment of cancer” (IDENIX PHARMACEUTICALS LLC, priority 2015, dated 2020).

Common to all, as to experiment: In vitro inhibition, CellTiter-Glo (CTG) assay
What all share (format): cell-based

Experiment [1] has as its system A498. Particulars: 72 hr exposure. The protocol: (§1) Cells were grown in RPMI-1640 supplemented with L-Glutamine and 10% FBS of the following cell lines:
(§2) CCRF-CEM; HL-60; KG-1; CFPAC-1; MiaPACA-2; BxPC-3; HepG2; MDA-MB-231; HCT-116; A498; and NCI-H69
(§3) 18, 96 well plates of each cell line were seeded with the optimized number of cells per well in a total volume of 50 μper well. The plates were left overnight. Plate wells were seeded with 100 pt media for media control. The following day, cells were exposed to test compounds as described below. At the same time as drug exposure, a CTG assay was conducted on the 18th plate for the 0 hr count.
(§4) The compounds were added to cells and medium already on the plate to give desired final concentrations. 50 μL media were added to cell control wells, and 50 μL of mix added to vehicle control wells. 10 μM Doxorubicin was added to appropriate wells as control. Cells exposed to test compound were incubated at 37° C. for 72 hr followed by a CTG assay.
(§5) At the end of the 72 hr exposure period, plates were removed for a CellTiter-Glo (CTG) assay from a 37° C., 5% CO2 incubator and placed on the bench at room temperature for 30 mins. 100 μL of CellTiter-Glo reagent was added and mixed for 2 mins, followed by a further 10 min incubation at room temperature. Luminescence was recorded using Synergy 4.0.

Experiment [2] deals with KG-1. The protocol: as §1, §2, §3, §4, §5
The test system of experiment [3] is BxPC-3. The following applies: 72 hr exposure. As for the experimental part: as §1, §2, §3, §4, §5
Experiment [4] deals with NCI-H69. The protocol: as §1, §2, §3, §4, §5
Experiment [5] deals with CCRF-CEM. Particulars: 72 hr exposure. The protocol:
as §1, §2, §3, §4, §5

Experiment [6] deals with CFPAC-1. Particulars: 72 hr exposure. The protocol: as §1, §2, §3, §4, §5
The test system of experiment [7] is HL-60. The protocol: as §1, §2, §3, §4, §5
In experiment [8] the test system is HepG2. Particulars: 72 hr exposure. As for the experimental part: as §1, §2, §3, §4, §5
Experiment [9] deals with HCT-116. Particulars: 72 hr exposure. As for the experimental part:
as §1, §2, §3, §4, §5

Experiment [10] has as its system MiaPACA-2. The following applies: 72 hr exposure. As for the experimental part: as §1, §2, §3, §4, §5
For experiment [11], the system named is MDA-MB-231. The protocol:
as §1, §2, §3, §4, §5

Where [12] appears, read: Homo sapiens, KG-1, 72 h, 72 hr exposure.
The mark [13] stands for this setting: Homo sapiens, NCI-H69, 72 h, 72 hr exposure.
Setting [14] is: Homo sapiens, HL-60, 72 h, 72 hr exposure.
Setting [15] is: Homo sapiens, MDA-MB-231, 72 hr exposure.

What is called IC50 is the point on the concentration scale where inhibition reaches its midpoint. For `Nc1ccn([C@@H]2O[C@H](COP(=O)(O)NCc3ccccc3)[C@@H](O)C2(F)F)c(=O)n1` [Compound 117], the IC50 in [1] (Homo sapiens, A498, 72 h) is below 1 µM; in experiment [2] (setting [12]), below 1 µM; in experiment [3] (Homo sapiens, BXPC-3, 72 h), below 1 µM; in experiment [4] (setting [13]) it was below 1 µM; in [5] (Homo sapiens, CCRF-CEM, 72 h), below 1 µM; in experiment [6] (Homo sapiens, CFPAC-1, 72 h), below 1 µM. Besides, the IC50 in experiment [7] (setting [14]) was below 1 µM; in [8] (Homo sapiens, HepG2, 72 h), below 1 µM; in experiment [9] (Homo sapiens, HCT-116, 72 h) it was below 1 µM; in experiment [10] (Homo sapiens, MIA PaCa-2, 72 h), below 1 µM; in experiment [11] (setting [15]), 1 to 10 µM.

`CCOC(=O)COP(=O)(N[C@@H](CC(C)C)C(=O)OCC)OC[C@H]1O[C@@H](n2ccc(N)nc2=O)C(F)(F)[C@@H]1O` (single isomer, unassigned) [108 (diastereomer 2)]: the IC50 in experiment [1] is 10 to 100 µM; in experiment [2] (72 hr exposure) it was below 1 µM; in experiment [3] it was below 1 µM; in experiment [4] (72 hr exposure), 10 to 100 µM; in [5], below 1 µM; in experiment [6], below 1 µM. The IC50 in experiment [7] (72 hr exposure) is below 1 µM; in experiment [8], below 1 µM; in [9], 1 to 10 µM; in experiment [10], below 1 µM; in [11] (72 hr exposure), 1 to 10 µM.

For `CC(C)OC(=O)[C@H](C)NP1(=O)OC[C@H]2O[C@@H](n3ccc(N)nc3=O)C(F)(F)[C@@H]2O1` (single isomer, unassigned) [103 (diastereomer 1)], the IC50 was 10 to 100 µM in experiment [1] (Homo sapiens, A498, 72 h); below 1 µM in [2] (Homo sapiens, KG-1, 72 hr exposure); 10 to 100 µM in experiment [3]; 10 to 100 µM in experiment [4] (Homo sapiens, NCI-H69, 72 hr exposure); below 1 µM in [5] (Homo sapiens, CCRF-CEM); below 1 µM in experiment [6] (Homo sapiens, CFPAC-1, 72 h). In addition, the IC50 in experiment [7] (Homo sapiens, HL-60, 72 hr exposure) was below 1 µM; in experiment [8] (Homo sapiens, HepG2, 72 h), below 1 µM; in experiment [9] (Homo sapiens, HCT-116, 72 h), 1 to 10 µM; in [10] (Homo sapiens, MIA PaCa-2, 72 h) it was 1 to 10 µM; in [11] (setting [15]), 10 to 100 µM.

Take `CCOC(=O)COP(=O)(N[C@@H](CC(C)C)C(=O)OCC)OC[C@H]1O[C@@H](n2ccc(N)nc2=O)C(F)(F)[C@@H]1O` (single isomer, unassigned) [108 (diastereomer 1)]: the IC50 was below 1 µM in [1]; below 1 µM in experiment [2] (setting [12]); 1 to 10 µM in experiment [3] (Homo sapiens, BXPC-3, 72 h); 1 to 10 µM in [4] (72 hr exposure); below 1 µM in [5] (Homo sapiens, CCRF-CEM, 72 h); below 1 µM in experiment [6] (Homo sapiens, CFPAC-1, 72 h). For the same compound, the IC50 was below 1 µM in experiment [7] (setting [14]); below 1 µM in experiment [8] (Homo sapiens, HepG2, 72 h); 1 to 10 µM in experiment [9] (Homo sapiens, HCT-116, 72 h); below 1 µM in experiment [10] (Homo sapiens, MIA PaCa-2, 72 h); 1 to 10 µM in [11] (setting [15]).

As for `Cn1c(COP(=O)(NCc2ccccc2)OC[C@H]2O[C@@H](n3ccc(N)nc3=O)C(F)(F)[C@@H]2O)cnc1[N+](=O)[O-]` (single isomer, unassigned) [112 (diastereomer 1)], the IC50 in [1] (Homo sapiens, A498, 72 h) lay within 10 to 100 µM; in experiment [2] (72 hr exposure), 10 to 100 µM; in experiment [3] (Homo sapiens, BXPC-3, 72 h), 10 to 100 µM; in experiment [4] (setting [13]), 10 to 100 µM; in [5], 10 to 100 µM; in experiment [6], 10 to 100 µM. For the same compound, the IC50 in [7] (setting [14]) lay within 1 to 10 µM; in [8], 10 to 100 µM; in [9] (Homo sapiens, HCT-116, 72 h), 10 to 100 µM; in [10] (Homo sapiens, MIA PaCa-2, 72 h), 10 to 100 µM; in experiment [11] (setting [15]) it was 10 to 100 µM.
